Test results as given in patent publication US20240335427A1, “SMALL MOLECULE INHIBITION OF DEUBIQUITINATING ENZYME JOSEPHIN DOMAIN CONTAINING 1 (JOSD1) AS A TARGETED THERAPY FOR LEUKEMIAS WITH MUTANT JANUS KINASE 2 (JAK2)” (DANA-FARBER CANCER INSTITUTE, INC., priority 2021, published 2024).

How the values were obtained:
JOSD1 [1] = biological target: T1, JOSD1 (Homo sapiens (Human), UniProt Q15040); test: biochemical
Method: (§3) In vitro JOSD1 activity assay & Ubiquitin-7-amido-4-methylcoumarin (AMC) assay. In vitro JOSD1 activity assay was carried out with Ubiquitin-AMC assay. […] Recombinant JOSD1 was tested for activity in a Ubiquitin-AMC assay in the presence or absence of inhibitors. […] The reaction was incubated for 6 hours at room temperature prior to the addition of 2 μM Ubiquitin-AMC (Boston Biochem) substrate. The initial rate of the reaction was measured by collecting fluorescence data at one-minute intervals over a 30-minute period using a Clariostar® fluorescence plate reader at excitation and emission wavelengths of 345 and 445 nm, respectively. The calculated initial rate values were plotted against inhibitor concentrations to determine IC50 values.
(§4) In vitro JOSD1 activity assay. Recombinant full-length JOSD1 was tested for activity in a Ubiquitin-AMC assay in the presence or absence or inhibitors. For this assay, 10 nM JOSD1 was pre-incubated with different concentrations of inhibitors or DMSO as a control in 50 mM Tris 8.0, 0.5 mM EDTA, 10 mM ovalbumin, 5 mM DTT. The reaction was incubated for 6 h at room temperature prior to the addition of 2 mM Ubiquitin-AMC (Boston Biochem) substrate. The initial rate of the reaction was measured by collecting fluorescence data at one-minute intervals over a 30-minute period using a CLARIOstar® fluorescence plate reader at excitation and emission wavelengths of 345 and 445 nm, respectively. The calculated initial rate values were plotted against inhibitor concentrations to determine IC50 values.
(§5) JOSD1 biochemical inhibition was investigated for the analogs shown using the fluorescent substrate ubiquitin-rhodamine against purified enzyme in a continuous kinetic assay.

UCHL1 = UCHL1 (Homo sapiens (Human), UniProt P09936); test: UCHL1 biochemical inhibition (ubiquitin hydrolase activity, purified enzyme)
USP30 = USP30 (Homo sapiens (Human), UniProt Q70CQ3); test: USP30 biochemical IC50
[2] = system: native DUBs (UCHL1, USP30 and JOSD1); test: Competitive activity-based protein profiling with quantitative mass spectrometry in HEK-293T lysates; assay type: binding; settings: block of labeling by DUB activity-based probes
Method: Activity Based Protein Profiling (ABPP) assay. DUB targets were investigated using competitive ABPP with quantitative mass spectrometry. The ability to block labeling of 50 DUBs by ubiquitin-based DUB activity-based probes was quantitatively measured in HEK-293T lysates.
DUB ABPP of Compound Targets. Activity-based probes biotin-Ub-PA (UbiQ-076) and biotin-Ub-VME (UbiQ-054) were obtained from UbiQ Bio. DUB Activity based protein profiling was performed using conditions modified from those in Schauer, et al., 2020, Scientific Reports, 10:1-15, based on work by Lawson, et al., 2017 Oncotarget, 8:51296-316. HEK 293T cells were lysed (50 mM Tris pH 8.0, 150 mM NaCl, 5 mM MgC2, 0.5 mM EDTA, 0.5% NP-40, 10% glycerol, 1 mM tris(2-carboxyethyl)phosphine (TCEP), protease and phosphatase inhibitors) and the lysate was clarified by centrifugation, then diluted to 10 mg/mL. 200 μL aliquots were incubated at the indicated compound concentrations or DMSO for 5 hours at room temperature, final DMSO concentration 0.5%. Afterwards, the treated lysates were incubated with 1 μM each of Biotin-Ub-PA and Biotin-Ub-VME for 90 minutes at room temperature. […]
Specifically, quantitative mass spectrometry was utilized to measure the ability of compounds 1 and 2 to block labeling of […] native DUBs by ubiquitin-based DUB activity-based probes in HEK-293T lysates. […]

[3] = system: Ba/F3-EPOR-JAK2-V617F-expressing cells; test: Ba/F3 cell proliferation (CellTiter Glo); assay type: cell-based, murine
Method: Proliferation and Drug Combination Studies. Proliferation and drug combination studies were carried out as previously described (Yang, et al., 2020, British Journal of Cancer, 122:1175-84).
As toxicities can result from small molecule targeting of both oncogenic mutated JAK2 as well as its non-mutated counterpart, a chemical genetics screen was designed and performed of a DUB-focused small molecule inhibitor library with the goal of leveraging crosstalk between phosphorylation and ubiquitination to identify DUB inhibitors able to selectively degrade mutant JAK2 while sparing wt JAK2. Of relevance, activated FLT3 can be selectively degraded over the wt enzyme by inhibition of the DUB, USP10, (Wernig, et al., 2008, Blood, 111(7):3751-9) and similar to FLT3, JAK2 is ubiquitinated in an activation-dependent manner. In brief, the library of known and novel DUB inhibitors was evaluated for ability to suppress growth of Ba/F3-EPOR-JAK2-V617F-expressing cells selectively over Ba/F3-EPOR cells growing in the presence of interleukin-3.
(§1) A broader range of compounds 1 and 2, including concentrations lower than 1 μM, were also tested on growth of EPOR-JAK2-V617F-expressing Ba/F3 cells and parental Ba/F3 EpoR+ cells (24 hours treatment on 4000 cells per well) (FIG. 18-FIG. 18B). Cell growth inhibition (FIG. 17A-FIG. 17B, FIG. 18A-FIG. 18B) was tested on Ba/F3-EPOR-JAK2-V617F (-IL-3/WEHI) and parental Ba/F3-EPOR cells (+IL-3/WEHI) plated at 2000 cells per well, at 1, 3 and 10 μM for 24 hours using the Promega CellTiter Glo® assay.

JAK2-V617F [4] = test: JAK2 protein level by western blotting in Ba/F3-EPOR-JAK2-V617F cells; assay type: cell-based
Method: Immunoblotting and Immunoprecipitation. Protein lysate preparation, immunoblotting, and immunoprecipitation were carried out as previously described (Lamberto, et al., 2017 Cell Chem Biol., 224(12):1490-500 e11). Briefly, 0.7×10^6 cells were treated with compounds 1 and 2 at 0, 5, 10, […], cells were collected, and lysate was prepared in radioimmunoprecipitation assay (RIPA) buffer, JAK family and downstream signaling protein levels were detected by western blotting with the indicated antibodies. For immunoprecipitation, 1 mg protein for each sample was prepared and 1 μg antibody was used, immunoglobulin G (IgG) was added in same amount as nontargeting control.
as §1

wt JAK2 = wt JAK2 (Mus musculus (Mouse), UniProt Q62120); test: JAK2 protein level by western blotting in Ba/F3-EPOR-JAK2 wt cells; assay type: cell-based
Method: (§2) Immunoblotting and Immunoprecipitation. Protein lysate preparation, immunoblotting, and immunoprecipitation were carried out as previously described (Lamberto, et al., 2017 Cell Chem Biol., 224(12):1490-500 e11). Briefly, 0.7×10^6 cells were treated with compounds 1 and 2 at 0, 5, 10, and 20 μM for 16 or 24 hours, cells were collected, and lysate was prepared in radioimmunoprecipitation assay (RIPA) buffer, JAK family and downstream signaling protein levels were detected by western blotting with the indicated antibodies. For immunoprecipitation, 1 mg protein for each sample was prepared and 1 μg antibody was used, immunoglobulin G (IgG) was added in same amount as nontargeting control.

HEL cells = test: HEL cell growth inhibition by fresh or aged drug stocks (stability); assay type: cell-based, human; settings: stocks stored two to three years at −20° Celsius; 2.5, 5, 10, 20 μM, 24 hours
Method: Fresh or aged stocks of compounds 1 and 2 were tested for the ability to inhibit HEL cell growth at 2.5, 5, 10, and 20 μM of each drug after 24 hours (FIG. 19A-FIG. 19B).
The CellTiter Glo® assay was performed using HEL cells seeded at 1000 cells/well of a 96-well plate. The “fresh” drug stocks were obtained frozen (stored at −20° Celsius) within days of executing the proliferation experiment for which results are shown. The “aged” drug stocks were obtained from freeze-thawed stocks serially diluted and stored at −20° Celsius in the laboratory. The “aged” stocks were stored between at least two years to three years at −20° Celsius with little to no freeze-thaw cycles prior to execution of the proliferation experiment for which results are shown. “Aged” stocks may be stored for several years (e.g., at least one year, at least two years, at least three years, at least four years or more) at −20° Celsius prior to use.

JAK2-V617F [5] = biological target: JAK2-V617F (Homo sapiens (Human), UniProt O60674, V617F); test: JAK2-V617F protein loss in human AML cell lines by western blotting; assay type: cell-based; settings: HEL cells, co-treatment with cycloheximide
Method: as §2

normal bone marrow cells = test: Normal bone marrow colony assay; assay type: cell-based, human
Method: Normal human bone marrow was also analyzed in a colony assay: 24-well plates seeded with 200 cells/well in MethoCult™ H4434 Classic (methylcellulose-based medium with recombinant cytokines for human cells) ([…] Technologies™ INC., Vancouver, British Columbia, Canada). The plates contained targeted JOSD1 inhibitors at the indicated concentrations. Plates were incubated at 37° C. in 5% CO2 for >1 week, and then myeloid and erythroid colonies (early progenitors with erythroid and myeloid components: colony-forming unit for granulocytes and macrophages (CFU-GM), CFU-erythroid (E), BFU-E, and CFU-granulocyte, erythroid, macrophage, megakaryocyte (GEMM) were counted on an inverted microscope.

JOSD1 [6] = biological target: T1, JOSD1; test: In vitro JOSD1 activity assay (biochemical IC50, purified enzyme)
Method: as §3, §4, §5

UCHL1, sequence (P09936 whole entry, species assumed): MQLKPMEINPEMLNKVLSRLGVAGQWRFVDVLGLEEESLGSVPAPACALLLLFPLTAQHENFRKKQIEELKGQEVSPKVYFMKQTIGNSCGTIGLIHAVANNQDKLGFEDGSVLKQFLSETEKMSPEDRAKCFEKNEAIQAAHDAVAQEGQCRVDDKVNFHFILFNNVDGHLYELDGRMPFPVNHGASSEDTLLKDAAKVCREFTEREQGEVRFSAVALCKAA
USP30, sequence (Q70CQ3 whole entry, species assumed): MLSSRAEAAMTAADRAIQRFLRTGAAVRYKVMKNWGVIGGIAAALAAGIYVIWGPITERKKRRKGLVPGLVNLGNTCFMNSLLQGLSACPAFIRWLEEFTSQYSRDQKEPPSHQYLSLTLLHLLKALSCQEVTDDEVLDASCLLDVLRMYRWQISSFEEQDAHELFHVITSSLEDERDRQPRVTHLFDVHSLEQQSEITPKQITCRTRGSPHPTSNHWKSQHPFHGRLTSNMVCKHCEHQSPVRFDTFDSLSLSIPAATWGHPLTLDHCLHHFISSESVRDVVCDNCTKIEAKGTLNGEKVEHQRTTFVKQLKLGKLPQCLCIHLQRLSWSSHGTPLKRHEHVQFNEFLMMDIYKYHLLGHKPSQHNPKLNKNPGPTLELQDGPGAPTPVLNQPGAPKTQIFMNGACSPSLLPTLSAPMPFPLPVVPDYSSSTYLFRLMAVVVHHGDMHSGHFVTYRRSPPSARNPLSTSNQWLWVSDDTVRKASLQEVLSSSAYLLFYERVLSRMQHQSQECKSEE

IC50 (JOSD1 [1]) [nM]	UCHL1 biochemical IC50 (range in words) (UCHL1)	USP30 biochemical IC50 (range in words) (USP30)	JAK2 levels in wt cells (wt JAK2)	JAK2-V617F protein half-life (JAK2-V617F [5])	normal bone marrow colony formation (normal bone marrow cells; 5 μM or higher)	normal bone marrow colony formation (normal bone marrow cells; concentrations up to 2.5 μM)	JOSD1 IC50 (range in words) (JOSD1 [6])	Structure (SMILES)	target engagement of UCHL1, USP30 and JOSD1 [2]	killing of Ba/F3-EPOR-JAK2-V617F cells compared to wt JAK2-expressing parental Ba/F3 cells [3]	sensitivity compared to Ba/F3 cells overexpressing other oncogenes [3]	cell growth inhibition ([3]; 1, 3 and 10 μM, 24 hours, independent experiments)	JAK2 degradation, independent western blotting (JAK2-V617F [4]; 18 hours, 10 μM compound 1 or 5 μM compound 2)	JAK2-V617F protein level (JAK2-V617F [4]; Ba/F3-EPOR-JAK2-V617F-expressing cells)	stability: growth inhibition by aged stocks versus fresh stocks (HEL cells)
> 100	–	–	–	–	–	–	–	CCS(=O)(=O)N1CCN(c2nc3cccc(-c4c(C)noc4C)c3s2)C(=O)C1 [Compound 66]	–	–	–	–	–	–	–
–	several hundred	several hundred	little to no impact on JAK2 levels	shorten JAK2-V617F protein half-life	significantly impaired	colonies were able to form	several hundred	Cc1noc(C)c1-c1ccc2nc(NC(=O)[C@H]3CCN(C#N)C3)sc2c1 [Compound 1, (S)-1-cyano-N-(6-(3,5-dimethylisoxazol-4-yl)benzo[d]thiazol-2-yl)pyrrolidine-3-carboxamide]	dose-dependent target engagement	selective killing	among the highest sensitivity	inhibit growth	degradation of JAK2	decreases in JAK2-V617F protein	comparable cell growth inhibition
